Broadly, the MBC is the lowest tested concentration that kills the bacteria rather than only halting them.

“And” between values parts separate entries of the source, which are not always exact repeats. Equal values may be shown once. Read-outs that look alike come from different tables or passages of the source.

One data set deals with Mtb H37Rv. Nature of the data set: Minimum bactericidal concentration (MBC), Mtb H37Rv. In kind it is cell-based, Mycobacterium tuberculosis. The following applies: for MBC: Mycobacterium tuberculosis, H37RV.
The nature of data set [1]: Hepatocyte stability, mice. The conditions noted are these: mouse, pH 7.4. In kind it is in vitro ADME. Summed up:
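Clearance expressed as % of liver blood flow (% Qh), derived from half-life via the well-stirred liver model. Compound at 1 µM final was incubated up to 6 h with ~1 million cells/mL hepatocytes in 50% serum buffer, 37 °C, pH 7.4.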

The subject of another data set is Msm #607. Nature of the data set: Minimum bactericidal concentration (MBC), Msm #607. The format is cell-based, Mycobacterium smegmatis. The conditions noted are these: for MBC: Mycolicibacterium smegmatis.
A short description of data set [2]: in vivo. The conditions noted are these: male, BALB/cAnNCrl, mouse, in vivo, po. The format is in vivo, BALB/cAnNCrl mice. Summed up: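 Male BALB/cAnNCrl mice (n = 3) were dosed 1 mg/kg iv or 30 mg/kg po from a 3.0 mg/mL suspension in 20% kleptose. Blood was sampled to 24 h, and plasma was quantified by UPLC-MS/MS after ACN precipitation. chromLogD7.5 came from C18 retention calibrated against n-alkan-2-ones.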

Data set [3] in a line: in vivo. In kind it is in vivo, BALB/cAnNCrl mice. The conditions noted are these: mouse, in vivo, iv. Summed up:
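Male BALB/c mice (9 weeks, n = 3 per route) received a bolus of 1 mg/kg iv or 30 mg/kg po; blood was sampled from 0.1 (iv) or 0.25 (po) h to 24 h. Plasma was protein-precipitated with ACN and quantified by UPLC-MS/MS. LogD given as chromLogD7.5, from C18 retention calibrated against n-alkan-2-ones.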

The target in data set [4] is ClpC1-NTD substrate, M. tuberculosis ClpC1P1P2 (Mycobacterium tuberculosis, UniProt P9WPC9). Nature of the data set: biochemical. In kind it is biochemical. The conditions noted are these: read-out: DC50, Mean.
ClpC1-NTD substrate, M. tuberculosis ClpC1P1P2, sequence (P9WPC5 whole entry): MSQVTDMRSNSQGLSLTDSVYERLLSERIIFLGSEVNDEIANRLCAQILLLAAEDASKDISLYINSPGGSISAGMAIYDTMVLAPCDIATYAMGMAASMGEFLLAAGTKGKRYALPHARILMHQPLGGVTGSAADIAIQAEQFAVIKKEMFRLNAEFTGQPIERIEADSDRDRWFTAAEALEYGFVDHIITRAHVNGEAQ
ClpC1-NTD substrate, M. tuberculosis ClpC1P1P2, sequence (P9WPC9 whole entry): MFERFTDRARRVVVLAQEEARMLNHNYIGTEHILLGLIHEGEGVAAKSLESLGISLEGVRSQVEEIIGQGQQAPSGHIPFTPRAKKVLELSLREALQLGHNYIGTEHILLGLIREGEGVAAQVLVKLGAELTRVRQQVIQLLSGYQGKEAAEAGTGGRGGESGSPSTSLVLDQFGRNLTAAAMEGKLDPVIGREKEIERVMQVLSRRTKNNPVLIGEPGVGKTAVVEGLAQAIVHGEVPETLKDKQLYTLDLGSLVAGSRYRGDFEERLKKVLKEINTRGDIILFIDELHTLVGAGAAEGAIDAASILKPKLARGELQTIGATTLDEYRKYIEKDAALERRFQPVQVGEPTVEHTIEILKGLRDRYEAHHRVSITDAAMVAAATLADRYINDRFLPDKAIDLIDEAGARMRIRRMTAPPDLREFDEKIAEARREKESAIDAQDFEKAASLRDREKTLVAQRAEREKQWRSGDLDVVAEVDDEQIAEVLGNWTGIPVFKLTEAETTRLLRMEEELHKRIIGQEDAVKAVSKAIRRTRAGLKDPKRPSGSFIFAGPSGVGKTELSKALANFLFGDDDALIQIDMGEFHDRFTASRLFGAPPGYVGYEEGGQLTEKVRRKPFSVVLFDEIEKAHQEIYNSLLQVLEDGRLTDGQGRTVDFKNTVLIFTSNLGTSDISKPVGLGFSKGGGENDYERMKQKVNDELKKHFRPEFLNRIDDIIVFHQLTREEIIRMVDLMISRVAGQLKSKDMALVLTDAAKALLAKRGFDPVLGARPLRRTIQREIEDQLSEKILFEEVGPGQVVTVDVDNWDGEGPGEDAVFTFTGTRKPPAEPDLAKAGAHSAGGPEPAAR
ClpC1-NTD substrate, M. tuberculosis ClpC1P1P2, sequence (P9WPC3 whole entry, further chain): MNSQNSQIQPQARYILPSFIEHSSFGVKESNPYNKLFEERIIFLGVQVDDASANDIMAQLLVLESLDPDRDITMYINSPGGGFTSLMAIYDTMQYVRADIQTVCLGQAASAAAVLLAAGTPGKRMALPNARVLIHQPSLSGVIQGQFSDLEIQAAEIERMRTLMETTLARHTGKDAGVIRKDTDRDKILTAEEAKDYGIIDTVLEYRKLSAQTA
In data set [5] the test system is Mtb H37Rv in THP-1 macrophages. As to the kind of experiment: Intracellular MIC assay in THP-1 macrophages. The format is cell-based, Mycobacterium tuberculosis. Details: Emax: unit not given here.
Data set [6] relates to non-replicating cells of Mtb H37Rv. The format is cell-based, Mycobacterium tuberculosis.

Turning to `COC(c1ccccc1)C1NC(=O)C(C)NC(=O)C(CC(C)CO)N(C)C(=O)C(Cc2cn(C)c3ccccc23)NC(=O)C(Cc2cn(CCCCCn3cc(CC4NC(=O)C(CC(C)C)N(C)C(=O)C(C(C)C)NC(=O)C(C(OC)c5ccccc5)NC(=O)C(C)NC(=O)C(CC(C)CO)N(C)C(=O)C(Cc5cn(C)c6ccccc56)NC4=O)nn3)nn2)NC(=O)C(CC(C)C)N(C)C(=O)C(C(C)C)NC1=O` (centres unmarked) [Compound 12], the “colony growth after replating (MBC assay)” value in the data set with Mtb H37Rv is given as “did not form any colonies at concentrations at or above the MIC value”. In addition, the MBC in the data set with Mtb H37Rv (read-out: MBC (from Set 3) Mtb H37Rv) is 0.1 µM and 0.2 µg/mL. In addition, the MBC in the data set with Mtb H37Rv (read-out: MBC Mtb H37Rv) is 0.1 µM and 0.2 µg/mL. In addition, in data set [1], the “Hepatocyte Mice” value worked out at 15 %Qh. Further, in the data set on Msm #607, the “colony growth after replating (MBC assay)” value is given as “growth of colonies could be observed across all tested concentrations”. In the data set with Msm #607 (ATCC607, read-out: MBC (from Set 3) Msm ATCC 607), the minimal bactericidal concentration (MBC) is > 99 µg/mL and > 50 µM. Moreover, the MBC in the data set on Msm #607 (read-out: MBC Msm #607) was > 50 µM and > 99 µg/mL. Besides, in the data set “in vivo [2]”, the AUC0-inf/Dose was found to be 62.6 h*nM/nmol/kg, the AUC0-t/Dose turned out to be 45.5 h*nM/nmol/kg, the BA came out at 0.7% and the Cmax/Dose was 2.56 nM/nmol/kg. In the data set “in vivo [3]” (male, BALB/cAnNCrl, 1 mg/kg), the Cl was 4.14 mL/min/kg, the T1/2 was 1.37 h and the VSS came out at 0.42 L/kg. Moreover, in the data set “in vivo [3]”, the AUC is recorded as 3870 h nM/(nmol kg-1), the Cmax was 3270 nM/(nmol kg-1) and the “Plasma concentration 24 h” value was “BLOQ”. In addition, in data set [4], the DC50 came out at 7.1 µM. Also, the Emax in data set [5] is 0.28. For the same molecule, the “inhibitory activity on non-growing Mtb H37Rv” value in data set [6] is on record as “lost their inhibitory activity”.
